PubChem BioAssay AID1919014 (Molecular Pharmacology Branch, DTP, NCI, 2023)
Values joined by “and” are separate entries in the source; they are usually repeats but may differ in a detail not shown here. Equal values may be shown once.

Tested on: NCI-H1341 complex spheroids, percent test/control
Assay: Anticancer human tumor NCI-H1341 cell line growth inhibition [AhR];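 further: spheroids exposed to agents for seven days before readout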
Details: for viability, T/C: stronger effect = lower value; active means viability on the fitted dose curve at most 10% of control; inactive means the rest
Description: Multicellular complex tumor spheroid response to aryl hydrocarbon receptor antagonists in combination with a variety of drugs and investigational agents in selected tumor cell lines
The current study was undertaken to assess response to aryl hydrocarbon receptor antagonists in combination with standard-of-care drugs and investigational agents in solid tumor complex spheroid models. Complex spheroids include a stromal component modeled by human endothelial cells (HUVEC) and fibroblasts modeled by human mesenchymal stem cells (MSCs). The concentration ranges selected for each drug and investigational agent were based upon clinically achievable concentrations if the clinical Cmax of the agent was known.
Compounds. The drugs and investigational agents: BAY 2416964 (NSC825713), GNF351 (NSC835774), CH-223191 (NSC835775), CPI-455 (NSC825282), aza-TdCyd (NSC777586), decitabine (NSC127716), belinostat (NSC758774), entinostat (NSC756642), pevonedistat (NSC761192), tazemetostat (NSC777109), talazoparib (NSC765396), olaparib (NSC753686), selinexor (NSC780203), nedisertib (M3814, NSC802822), bortezomib (NSC756655), venetoclax (NSC766270), doxorubicin (NSC123127), elimusertib (BAY189344, NSC800525), ceralasertib (AZD6738, NSC777638), TAK-243 (NSC785004), alisertib (NSC759677), etoposide (NSC141540), topotecan (NSC609699), eribulin (NSC707389), gemcitabine (NSC613327), carboplatin (NSC241240), cisplatin (NSC119875), and SN-38 (NSC673596) were obtained from the National Cancer Institute (NCI) Developmental Therapeutics Program Chemical Repository (32). The FDA-approved anticancer drug set is available from the Developmental Therapeutics Program at https://dtp.cancer.gov/organization/dscb/obtaining/available plates.htm. […] The stock solutions were prepared in dimethyl sulfoxide (DMSO, Sigma-Aldrich, St. Louis, MO, cat. D2650), except for the platinum compounds which were prepared in saline (Quality Biological, Gaithersburg, MD, cat. 114-055-101), at 800-fold the tested concentration and stored at -70 degrees C prior to their use. All drugs and investigational agents were tested over a range starting from a high concentration at or near the clinical Cmax and decreasing in half-log increments. If the clinical Cmax for an agent had not been determined, the highest concentration tested was 10 microM (Table 1).
Cell Culture. All cells were maintained in an incubator at 37 degrees C and 5% CO2 with 95% humidity. The PDC lines were cultured according to standard operating procedures established by the NCI PDMR (https://pdmr.cancer.gov). Briefly, all PDCs were thawed and cultured in Matrigel-coated flasks prepared with a working solution of 1X Ham's F-12 nutrient mix, without supplementation (Invitrogen, Waltham, MA, cat. 11765054), 100 U/mL penicillin-streptomycin (Invitrogen, cat. 15140122), and 2.5% Matrigel (Corning Inc., Corning, NY, cat. 354248) for the first three passages. All PDCs were cultured in complete DMEM/F-12 media containing advanced DMEM/F-12 (Invitrogen, cat. 12634028), 4.9% defined fetal bovine serum, heat inactivated (HyClone Laboratories Inc., Logan, UT, cat. SH30070.03HI), 389 ng/mL hydrocortisone (Sigma-Aldrich, cat. H4001), 9.7 ng/mL human EGF recombinant protein (Invitrogen, cat. PHG0313), 23.4 microg/mL adenine (Sigma-Aldrich, cat. A2786), 97.3 U/mL penicillin-streptomycin (Invitrogen, cat. 15140122), 1.9 mM L-glutamine (Invitrogen, cat. 25030081), and 9.7 microM Y-27632 dihydrochloride (Tocris Bioscience, Bristol, United Kingdom, cat. 1254). The PDCs were cultured in complete DMEM/F12 media without 10 microM Y-27632 dihydrochloride for at least two passages prior to the screen. The established cell lines NCI-H1341 and […] were cultured in DMEM/F-12, HEPES (Invitrogen, cat. 11330032), 5% defined fetal bovine serum (HyClone Laboratories Inc., cat. SH30070.03), ITS premix universal culture supplement [insulin (5 microg/mL), transferrin (5 microg/mL), and selenious acid (5 ng/mL)] […]

[1] = curve of first compound, second compound 0.1 µM
[2] = curve of first compound, second compound 0.316 µM
[3] = curve of first compound, second compound 1 µM
[4] = curve of first compound, second compound 3.16 µM
[5] = curve of first compound, second compound 10 µM
[6] = second compound 0.1 µM, first compound 0.0316 µM
[7] = second compound 0.1 µM, first compound 0.1 µM
[8] = second compound 0.1 µM, first compound 0.316 µM
[9] = second compound 0.1 µM, first compound 1 µM
[10] = second compound 0.316 µM, first compound 0.0316 µM
[11] = second compound 0.316 µM, first compound 0.1 µM
[12] = second compound 0.316 µM, first compound 0.316 µM
[13] = second compound 0.316 µM, first compound 1 µM
[14] = second compound 1 µM, first compound 0.0316 µM
[15] = second compound 1 µM, first compound 0.1 µM
[16] = second compound 1 µM, first compound 0.316 µM
[17] = second compound 1 µM, first compound 1 µM
[18] = second compound 3.16 µM, first compound 0.0316 µM
[19] = second compound 3.16 µM, first compound 0.1 µM
[20] = second compound 3.16 µM, first compound 0.316 µM
[21] = second compound 3.16 µM, first compound 1 µM
[22] = second compound 10 µM, first compound 0.0316 µM
[23] = second compound 10 µM, first compound 0.1 µM
[24] = second compound 10 µM, first compound 0.316 µM
[25] = second compound 10 µM, first compound 1 µM
[26] = second compound 0.1 µM, first compound 3.16 µM
[27] = second compound 0.1 µM, first compound 10 µM
[28] = second compound 0.316 µM, first compound 3.16 µM
[29] = second compound 0.316 µM, first compound 10 µM
[30] = second compound 1 µM, first compound 3.16 µM
[31] = second compound 1 µM, first compound 10 µM
[32] = second compound 3.16 µM, first compound 3.16 µM
[33] = second compound 3.16 µM, first compound 10 µM
[34] = second compound 10 µM, first compound 3.16 µM
[35] = second compound 10 µM, first compound 10 µM

COc1ccc([C@@H](O)c2cc(-c3ncnc4cc(N5CCOCC5)ccc34)c(F)cc2Cl)nn1
1650 nM and 1260 nM and 1880 nM: IC50 (curve of compound)
inactive: viability, T/C (compound 0.0316 µM) 97.1% and 88.2% and 96% | viability, T/C (compound 0.1 µM) 96.2% and 93.7% and 96.8% | viability, T/C (compound 0.316 µM) 91.2% and 79.9% and 87.8% | viability, T/C (compound 1 µM) 63.1% and 57% and 71.2% | viability, T/C (compound 3.16 µM) 31.1% and 22.9% and 32.9%
active: viability, T/C (compound 10 µM) 4.6% and 6.65% and 8.33%

Cn1ncnc1C1c2n[nH]c(=O)c3cc(F)cc(c23)NC1c1ccc(F)cc1 (centres undefined)
inactive: viability, T/C (compound 0.000316 µM) 125% and 98% and 95.9% | viability, T/C (compound 0.001 µM) 88.8% and 101% and 99% | viability, T/C (compound 0.00316 µM) 97.2% and 99.4% and 99.8% | viability, T/C (compound 0.01 µM) 96.9% and 109% and 95.9% | viability, T/C (compound 0.0316 µM) 85.5% and 74% and 100% | viability, T/C (compound 0.1 µM) 89.4% and 76.9% and 71.7%
> 100 nM: IC50 (curve of compound)

CC1COCCN1c1cc(-c2ccnn2C)c2ccnc(-c3ccn[nH]3)c2n1 (centres undefined) + CC(CO)NC(=O)c1cc(-c2ccc(Cl)cc2)nn(-c2cnn(C)c2)c1=O
25.3 nM: IC50 [4]
24.8 nM: IC50 [3]
16.8 nM: IC50 [5]
inactive: viability, T/C (second compound 0.1 µM, first compound 0.00316 µM) 87.6% | viability, T/C (second compound 0.1 µM, first compound 0.01 µM) 77.6% | viability, T/C [6] 61.2% | viability, T/C [7] 28.6% | viability, T/C [8] 20.5% | viability, T/C [9] 20.2% | viability, T/C (second compound 0.316 µM, first compound 0.00316 µM) 96.4% | viability, T/C (second compound 0.316 µM, first compound 0.01 µM) 73.6% | viability, T/C [10] 54.5% | viability, T/C [11] 29.7% | viability, T/C [12] 23.8% | viability, T/C [13] 18.2% | viability, T/C (second compound 1 µM, first compound 0.00316 µM) 90.2% | viability, T/C (second compound 1 µM, first compound 0.01 µM) 72.3% | viability, T/C [14] 44.6% | viability, T/C [15] 25.3% | viability, T/C [16] 22.7% | viability, T/C [17] 19.2% | viability, T/C (second compound 3.16 µM, first compound 0.00316 µM) 84.3% | viability, T/C (second compound 3.16 µM, first compound 0.01 µM) 77.3% | viability, T/C [18] 43.1% | viability, T/C [19] 24.6% | viability, T/C [20] 23.7% | viability, T/C [21] 17.8% | viability, T/C (second compound 10 µM, first compound 0.00316 µM) 71.2% | viability, T/C (second compound 10 µM, first compound 0.01 µM) 64% | viability, T/C [22] 33% | viability, T/C [23] 21.6% | viability, T/C [24] 22.2% | viability, T/C [25] 17.8%
34.3 nM: IC50 [2]
45.8 nM: IC50 [1]

CC(C)c1c(-c2ccccc2)nc2c(C#N)c[nH]n2c1=O + Cc1cncc(-c2nc(NCCc3c[nH]c4ccccc34)c3ncn(C(C)C)c3n2)c1
< 31.6 nM: IC50 [5]
inactive: viability, T/C [6] 90.7% | viability, T/C [7] 83.7% | viability, T/C [8] 86.6% | viability, T/C [9] 81.3% | viability, T/C [26] 69.6% | viability, T/C [27] 58% | viability, T/C [10] 75.5% | viability, T/C [11] 87.2% | viability, T/C [12] 95.5% | viability, T/C [13] 75.1% | viability, T/C [28] 75.8% | viability, T/C [29] 72.5% | viability, T/C [14] 75.9% | viability, T/C [15] 78.6% | viability, T/C [16] 78.5% | viability, T/C [17] 75.3% | viability, T/C [30] 78.9% | viability, T/C [31] 68% | viability, T/C [18] 79.9% | viability, T/C [19] 73.6% | viability, T/C [20] 74.6% | viability, T/C [21] 67.6% | viability, T/C [32] 63.5% | viability, T/C [33] 67.4% | viability, T/C [22] 18% | viability, T/C [23] 20.1% | viability, T/C [24] 21% | viability, T/C [25] 20.2% | viability, T/C [34] 16.2% | viability, T/C [35] 19.5%
> 10000 nM: IC50 [1] | IC50 [2] | IC50 [3] | IC50 [4]

COc1cc(Nc2ncc3c(n2)-c2ccc(Cl)cc2C(c2c(F)cccc2OC)=NC3)ccc1C(=O)O + Cc1ccccc1N=Nc1ccc(NC(=O)c2ccnn2C)c(C)c1
inactive: viability, T/C [6] 48.9% | viability, T/C [7] 45.1% | viability, T/C [8] 42% | viability, T/C [9] 31.9% | viability, T/C [26] 29.9% | viability, T/C [27] 25.6% | viability, T/C [10] 50.6% | viability, T/C [11] 46.3% | viability, T/C [12] 48.5% | viability, T/C [13] 39.2% | viability, T/C [28] 30% | viability, T/C [29] 25.2% | viability, T/C [14] 56.2% | viability, T/C [15] 55.3% | viability, T/C [16] 48.3% | viability, T/C [17] 40% | viability, T/C [30] 31.4% | viability, T/C [31] 26% | viability, T/C [18] 47.7% | viability, T/C [19] 48.1% | viability, T/C [20] 39.5% | viability, T/C [21] 40.9% | viability, T/C [32] 25.3% | viability, T/C [33] 26.8% | viability, T/C [22] 44% | viability, T/C [23] 43.9% | viability, T/C [24] 37.3% | viability, T/C [25] 38.2% | viability, T/C [34] 27.3% | viability, T/C [35] 28.6%
249 nM: IC50 [3]
< 31.6 nM: IC50 [1] | IC50 [2] | IC50 [4] | IC50 [5]
